Results reported in US10487078B2, “Compositions and methods of targeting mutant K-RAS” (NantBio, Inc., priority 2015, dated 2019).
Read-outs that look alike come from different tables or passages of the source.

Assays:
K-ras G12D = K-ras G12D (Homo sapiens, UniProt P01116, G12D); experiment: G-LISA Ras activation assay, 293H cells transfected with G12D mutant; type: cell-based; conditions: 1 hour treatment
Experimental: (§1) 293H cells were seeded in 6-wells at 0.6×10^6 cells per well and transfected next day with 5 μg of Ras wild-type, or G12C, G12D or G12V mutant DNA plasmid vector using transfection reagent Lipofectamine 3000. Next day cells were treated with 3.125-50 μM of Ras compounds for 1 hour. Wild-type transfected cells were subsequently treated with 100 ng/ml EGF for 2 minutes. Cells were washed once in ice-cold PBS, lysed in complete lysis buffer on ice, and processed by G-LISA according to Cytoskeleton protocol.
(§2) In-cell selectivity of the compounds presented herein against a specific K-ras mutant form can also be tested as shown in the following exemplary experiment. 293H cells were seeded in 6-wells and transfected next day with 5 μg of Ras wild-type, or G12C, G12D or G12V mutant DNA plasmid vector. Next day cells were treated with 3.125-50 μM of Ras compounds for 1 hour. Wild-type transfected cells were subsequently treated with 100 ng/ml EGF for 2 minutes. Cells were washed once in ice-cold PBS, lysed in complete lysis buffer on ice, and processed by G-LISA according to Cytoskeleton protocol. FIG. 1 depicts exemplary results.
as §1, with “In still further experiments, the inventors tested selected compounds in a G-LISA assay to compare IC50 values for wild-type and various mutant K-Ras (G12D, G12V) using the following general protocol: 293H” for “293H”

K-ras G12V (GTP) = K-ras G12V (GTP) (Homo sapiens, UniProt P01116, G12V); experiment: SPR assay (surface plasmon resonance); type: binding; conditions: 25° C., 8% DMSO
Experimental: Selected compounds were also tested for selective binding to wild type and mutant forms of K-ras in the active and non-active state using surface plasmon resonance, and exemplary results are shown in Table 4.
The running buffer in all surface plasmon resonance experiments was 10 mM HEPES pH 7.4, 150 mM NaCl, 0.1% (v/v) Tween-20, 1 mM MgCl2, 8% DMSO. Experiments were carried out on the SensiQ Pioneer optical biosensor. The flow rate was set at 50 μL/min and the temperature was 25° C. kRAS protein was immobilized to the Nickel-NTA charged surface of the SensiQ HisCap chip (sensiqtech.com) giving a yield of 4000 RU. Small molecules were prepared in 100% DMSO and further diluted to 8% DMSO in running buffer. The small molecules were injected using the Taylor diffusion gradient injection mode (OneStep®, see e.g., Evaluation of Taylor dispersion injections: Determining kinetic/affinity interaction constants and diffusion coefficients in label-free biosensing, John G. Quinn, Analytical Biochemistry (2011)). Buffer blanks were injected for double referencing purposes. Data processing and model fitting were performed using Qdat.

K-ras G12V = K-ras G12V (Homo sapiens, UniProt P01116, G12V); experiment: G-LISA Ras activation assay, 293H cells transfected with G12V mutant; type: cell-based; conditions: 1 hour treatment
Experimental: as §1, §2
as §1, with “In still further experiments, the inventors tested selected compounds in a G-LISA assay to compare IC50 values for wild-type and various mutant K-Ras (G12D, G12V) using the following general protocol: 293H” for “293H”

[1] = Table 1, G-LISA, 293H transfected, read-out: IC50 (μM) G12D
[2] = Table 5, IC50, 293H transfected, read-out: G-LISA (G12D)

Work on Cc1nc(C)c(C(=O)Nc2nc(-c3ccc4c(c3)CCC(=O)N4)cs2)s1 [Compound 4662] yielded an IC50 (K-ras G12D; [1]) greater than 25 µM and an IC50 (K-ras G12D; [2]) greater than 25 µM.

In the case of Cc1nc(C)c(C(=O)Nc2nc(-c3ccc(NC(=O)c4ccccc4)cc3)cs2)s1 [Compound 4665], the IC50 (K-ras G12D; [1]) is reported as greater than 25 µM and the IC50 (K-ras G12D; [2]) is reported as greater than 25 µM.

With O=C1CCc2cc(-c3csc(NC(=O)c4cnc(C5CC5)s4)n3)ccc2N1 [Compound 4683] the IC50 (K-ras G12D; [1]) was 12 µM and the IC50 (K-ras G12D; [2]) was 11.9 µM.

O=C1CCc2cc(-c3csc(NC(=O)c4cnc(-c5ccccc5)s4)n3)ccc2N1 [Compound 4684] gave an IC50 (K-ras G12D; [1]) greater than 25 µM and an IC50 (K-ras G12D; [2]) greater than 25 µM.

For N#Cc1ncc(C(=O)Nc2nc(-c3ccc4c(c3)CCC(=O)N4)cs2)s1 [Compound 4685], the IC50 (K-ras G12D; [1]) was greater than 25 µM and the IC50 (K-ras G12D; [2]) was greater than 25 µM.

For CC(=O)N1CCCc2cc(-c3csc(NC(=O)c4sc(C)nc4C)n3)ccc21 [Compound 4686], the Kd (K-ras G12V (GTP)) was 11.4 µM, the “SPR Assay G12V (GTP) Rmax” value (K-ras G12V (GTP)) was “Rmax = 94.2 ± 0.2” and the IC50 (K-ras G12D; [1]) was 11 µM. For the same compound, the IC50 (K-ras G12D; [2]) was 11 µM.

In the case of Cc1nc(C)c(C(=O)Nc2nc(-c3ccc4c(c3)CCC(=O)N4C)cs2)s1 [Compound 4687], the Kd (K-ras G12V (GTP)) is reported as 6.6 µM, the “SPR Assay G12V (GTP) Rmax” value (K-ras G12V (GTP)) is reported as “Rmax = 72.6 ± 0.1” and the IC50 (K-ras G12D; [1]) is reported as 19 µM. It also gave an IC50 (K-ras G12D; [2]) of 19 µM.

O=C1CCc2cc(-c3csc(NC(=O)c4scnc4C4CC4)n3)ccc2N1 [Compound 4735] was tested, and the Kd (K-ras G12V (GTP)) was 43 µM, the “SPR Assay G12V (GTP) Rmax” value (K-ras G12V (GTP)) was “Rmax = 203 ± 3” and the IC50 (K-ras G12D; [1]) was greater than 25 µM. For the same compound, the IC50 (K-ras G12D; [2]) was greater than 25 µM.

CCc1ncsc1C(=O)Nc1nc(-c2ccc3c(c2)CCC(=O)N3)cs1 [Compound 4747] was tested, and the Kd (K-ras G12V (GTP)) was 10.1 µM, the “SPR Assay G12V (GTP) Rmax” value (K-ras G12V (GTP)) was “Rmax = 85.3 ± 0.1” and the IC50 (K-ras G12D; [1]) was greater than 25 µM. The IC50 (K-ras G12D; [2]) was greater than 25 µM.

Cc1nc(C)c(C(=O)Nc2nc(-c3ccc4c(c3)CNC(=O)N4)cs2)s1 [Compound 4748] showed an IC50 (K-ras G12D; [1]) of 21 µM and an IC50 (K-ras G12D; [2]) of 21 µM.

Cc1nc(C)c(C(=O)Nc2nc(-c3cc4c5c(c3)CCN5C(=O)CC4)cs2)s1 [Compound 4749] was tested, and the Kd (K-ras G12V (GTP)) was 6.08 µM, the “SPR Assay G12V (GTP) Rmax” value (K-ras G12V (GTP)) was “Rmax = 75.9 ± 0.1” and the IC50 (K-ras G12D; [1]) was greater than 25 µM. For the same compound, the IC50 (K-ras G12D; [2]) was 36 µM.

Cc1nc(C)c(C(=O)Nc2nc(-c3ccc4c(c3)CCC(=O)N4)c(C)s2)s1 [Compound 4802] was tested, and the IC50 (K-ras G12V; Table 1, G-LISA, 293H transfected, read-out: IC50 (μM) G12V) was 17 µM, the IC50 (K-ras G12V; Table 5, IC50, 293H transfected, read-out: G-LISA (G12V)) was 17 µM and the IC50 (K-ras G12D; [1]) was greater than 25 µM. It also gave an IC50 (K-ras G12D; [2]) of 27 µM.

CCc1sc(NC(=O)c2sc(C)nc2C)nc1-c1ccc2c(c1)CCC(=O)N2 [Compound 4803] gave an IC50 (K-ras G12D; [1]) greater than 25 µM and an IC50 (K-ras G12D; [2]) of 71 µM.

O=C1CCc2cc(-c3csc(NCc4ccccc4)n3)ccc2N1 [Compound 4824] gave an IC50 (K-ras G12D; [1]) greater than 25 µM and an IC50 (K-ras G12D; [2]) greater than 25 µM.

O=C1CCc2cc(-c3csc(NC(=O)c4ccccc4)n3)ccc2N1 [Compound 4825] was tested, and the IC50 (K-ras G12D; [1]) was greater than 25 µM and the IC50 (K-ras G12D; [2]) was greater than 25 µM.

Compound O=C1CCc2cc(-c3csc(NC(=O)c4ncccn4)n3)ccc2N1 [Compound 4826] has an IC50 (K-ras G12D; [1]) greater than 25 µM and an IC50 (K-ras G12D; [2]) greater than 25 µM.

Work on Cc1nc(C(=O)Nc2nc(-c3ccc4c(c3)CCC(=O)N4)cs2)sc1C [Compound 4828] yielded an IC50 (K-ras G12D; [1]) greater than 25 µM and an IC50 (K-ras G12D; [2]) greater than 25 µM.

O=C1CCc2cc(-c3csc(Nc4ncccn4)n3)ccc2N1 [Compound 4829] showed an IC50 (K-ras G12D; [1]) greater than 25 µM and an IC50 (K-ras G12D; [2]) greater than 25 µM.
